Counter-ions that a name gives are not always drawn. Like-named read-outs stand apart in the source and are kept apart here.

One experiment concerns A549 cells. As to the kind of experiment: Cell-based assay, cellular growth (Cell Counting Kit-8, 72 hours). Here is the method:
(§1) 100 micro-L of cell suspension was seeded onto 96-well microtiter plate (ViewPlate-96FTC, PerkinElmer). […] Cellular growth was determined using Cell Counting Kit-8 (DOJINDO) at 72 hours after the exposure of the candidate inhibitors. […] Accurate IC50 values were calculated as described previously.
(In general: Formazan colour is commonly taken as a measure of viable cells.)

The next experiment has as its system T47D cells. The description is as above. Here is the method: as §1
The test system of another experiment is BT-549 cells. The experiment is described as above. The settings on record: Homo sapiens, BT549 cells. The method, then: as §1
The test system of the next experiment is HT-1197 cells. The experiment can be described thus: Cell-based assay, cellular growth (Cell Counting Kit-8, 72 hours), PBK-negative control cells. The method, then: as §1
The next experiment concerns the target PBK (Homo sapiens (Human), UniProt Q96KB5). The experiment can be described thus: Kinase assay (IMAP fluorescence polarization, FITC-labeled histone H3 peptide). Type of experiment: biochemical. Here is the method:
PBK activity was determined in the presence or absence of compounds using fluorescein isothiocyanate-labeled (FITC-labeled) histone H3 peptide as a substrate. […] The serially diluted compounds, 0.8 ng/micro-L PBK (Carna Biosciences) and 100 nM FITC-labeled histone H3 peptide were reacted in a reaction buffer (20 mM HEPES, 0.01% Tween-20, 0.3 mM MgCl2, 2 mM dithiothreitol, 50 micro-M ATP, pH 7.4) at room temperature for 1 hour. The reaction was stopped by the addition of three fold assay volume of progressive binding solution. […] IC50 values were calculated by nonlinear four parameter fit using SigmaPlot, version 10.0 (Systat Software, Inc.).

Setting [1] is: PBK 0.8 ng/micro-L, 50 micro-M ATP, 100 nM FITC-labeled histone H3 peptide, room temperature 1 hour.

Chain of PBK (Q96KB5 whole entry): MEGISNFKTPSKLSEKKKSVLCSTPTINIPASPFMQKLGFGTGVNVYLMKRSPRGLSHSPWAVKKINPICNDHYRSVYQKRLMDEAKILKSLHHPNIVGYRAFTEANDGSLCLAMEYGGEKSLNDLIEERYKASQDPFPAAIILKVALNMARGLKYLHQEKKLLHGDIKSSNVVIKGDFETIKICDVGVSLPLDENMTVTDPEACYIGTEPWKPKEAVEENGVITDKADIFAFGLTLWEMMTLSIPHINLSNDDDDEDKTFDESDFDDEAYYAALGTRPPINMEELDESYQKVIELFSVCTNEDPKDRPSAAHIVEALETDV

In the case of `COc1cc(C)c2[nH]c(=O)c3sccc3c2c1-c1ccc(C(C)CN)c(F)c1` (centres unmarked) [Compound 1273, 9-(4-(1-aminopropan-2-yl)-3-fluorophenyl)-8-methoxy-6-methylthieno[2,3-c]quinolin-4(5H)-one hydrochloride], the IC50 in the experiment on A549 cells (Homo sapiens, A549, 72 h) turned out to be 71 nM; in the experiment on T47D cells (Homo sapiens, T47D, 72 h), 170 nM; in the experiment on BT-549 cells, 73 nM; in the experiment with HT-1197 cells (Homo sapiens, HT1197, 72 h), 200 nM; against PBK it was 40 nM.

Take `Cc1cc(O)c(-c2ccc(C(CN)C(C)C)cc2)c2c1[nH]c(=O)c1sccc12` (centres unmarked) [Compound 1274, 9-(4-(1-amino-3-methylbutan-2-yl)phenyl)-8-hydroxy-6-methylthieno[2,3-c]quinolin-4(5H)-one]: the IC50 turned out to be 45 nM in the experiment on A549 cells (Homo sapiens, A549, 72 h); 98 nM in the experiment with T47D cells (Homo sapiens, T47D, 72 h); 66 nM in the experiment on BT-549 cells; 180 nM in the experiment on HT-1197 cells (Homo sapiens, HT1197, 72 h); 18 nM against PBK (setting [1]).

On to `COc1cc(C)c2[nH]c(=O)c3sccc3c2c1-c1ccc(C(CN)C(C)C)c(F)c1` (centres unmarked) [Compound 1283, 9-(4-(1-amino-3-methylbutan-2-yl)-3-fluorophenyl)-8-methoxy-6-methylthieno[2,3-c]quinolin-4(5H)-one hydrochloride], for which the IC50 was 560 nM with A549 cells (Homo sapiens, A549, 72 h); 560 nM with T47D cells (Homo sapiens, T47D, 72 h); 250 nM in the experiment on BT-549 cells; 530 nM in the experiment with HT-1197 cells (Homo sapiens, HT1197, 72 h); 47 nM on PBK (setting [1]).

As to `CNCC(c1ccc(-c2c(O)cc(C)c3[nH]c(=O)c4sccc4c23)cc1)C(C)C` (centres unmarked) [Compound 1285, 8-hydroxy-6-methyl-9-(4-(3-methyl-1-(methylamino)butan-2-yl)phenyl)thieno[2,3-c]quinolin-4(5H)-one], the IC50 in the experiment on A549 cells (Homo sapiens, A549, 72 h) stood at 230 nM; in the experiment with T47D cells (Homo sapiens, T47D, 72 h) it was 210 nM; in the experiment on BT-549 cells, 110 nM; in the experiment on HT-1197 cells (Homo sapiens, HT1197, 72 h), 280 nM; at PBK (setting [1]), 50 nM.

On to `CNCC(C)c1ccc(-c2c(OC)cc(C)c3[nH]c(=O)c4sccc4c23)cc1F` (centres unmarked) [Compound 1286, 9-(3-fluoro-4-(1-(methylamino)propan-2-yl)phenyl)-8-methoxy-6-methylthieno[2,3-c]quinolin-4(5H)-one hydrochloride], for which the IC50 was 95 nM in the experiment with A549 cells (Homo sapiens, A549, 72 h); 220 nM with T47D cells (Homo sapiens, T47D, 72 h); 93 nM in the experiment with BT-549 cells; 220 nM in the experiment on HT-1197 cells (Homo sapiens, HT1197, 72 h); 43 nM against PBK.

As to `Cc1cc(O)c(-c2ccc(C(CN)C(C)C)c(F)c2)c2c1[nH]c(=O)c1sccc12` (centres unmarked) [Compound 1288, 9-(4-(1-amino-3-methylbutan-2-yl)-3-fluorophenyl)-8-hydroxy-6-methylthieno[2,3-c]quinolin-4(5H)-one], the IC50 in the experiment on A549 cells (Homo sapiens, A549, 72 h) amounted to 110 nM; with T47D cells (Homo sapiens, T47D, 72 h), 74 nM; with BT-549 cells, 47 nM; in the experiment on HT-1197 cells (Homo sapiens, HT1197, 72 h), 140 nM; against PBK (setting [1]) it was 20 nM.

As for `CNCC(C)c1ccc(-c2c(O)cc(C)c3[nH]c(=O)c4sccc4c23)cc1F` (centres unmarked) [Compound 1293, 9-(3-fluoro-4-(1-(methylamino)propan-2-yl)phenyl)-8-hydroxy-6-methylthieno[2,3-c]quinolin-4(5H)-one], the IC50 in the experiment with A549 cells (Homo sapiens, A549, 72 h) is 35 nM; in the experiment with T47D cells (Homo sapiens, T47D, 72 h), 52 nM; in the experiment with BT-549 cells, 32 nM; with HT-1197 cells (Homo sapiens, HT1197, 72 h), 190 nM; on PBK (setting [1]), 8.9 nM.

In the case of `CNCC(c1ccc(-c2c(O)cc(C)c3[nH]c(=O)c4sccc4c23)cc1F)C(C)C` (centres unmarked) [Compound 1294, 9-(3-fluoro-4-(3-methyl-1-(methylamino)butan-2-yl)phenyl)-8-hydroxy-6-methylthieno[2,3-c]quinolin-4(5H)-one], the concentration for half-maximal inhibition (IC50) in the experiment with A549 cells (Homo sapiens, A549, 72 h) stood at 78 nM; with T47D cells (Homo sapiens, T47D, 72 h) it was 180 nM; in the experiment on BT-549 cells, 85 nM; in the experiment with HT-1197 cells (Homo sapiens, HT1197, 72 h) it was 340 nM; against PBK (setting [1]) it was 17 nM.

Turning to `CNC[C@H](C)c1ccc(-c2c(OC)cc(C)c3[nH]c(=O)c4sccc4c23)cc1` [Compound 1298, (R)-8-methoxy-6-methyl-9-(4-(1-(methylamino)propan-2-yl)phenyl)thieno[2,3-c]quinolin-4(5H)-one hydrochloride], the IC50 turned out to be 68 nM in the experiment with A549 cells (Homo sapiens, A549, 72 h); 140 nM with T47D cells (Homo sapiens, T47D, 72 h); 64 nM in the experiment with BT-549 cells; 160 nM with HT-1197 cells (Homo sapiens, HT1197, 72 h); 32 nM against PBK (setting [1]).

As to `Cc1cc(O)c(-c2ccc(C3CCCNC3)cc2)c2c1[nH]c(=O)c1sccc12` (centres unmarked) [Compound 1302, 8-hydroxy-6-methyl-9-(4-(piperidin-3-yl)phenyl)thieno[2,3-c]quinolin-4(5H)-one hydrochloride], the IC50 with A549 cells (Homo sapiens, A549, 72 h) came out at 970 nM; in the experiment on T47D cells (Homo sapiens, T47D, 72 h) it was 830 nM; with BT-549 cells, 740 nM; in the experiment on HT-1197 cells (Homo sapiens, HT1197, 72 h), 1500 nM; at PBK (setting [1]) it was 75 nM.

Consider `Cc1cc(O)c(-c2ccc([C@H](C)CN)c(F)c2)c2c1[nH]c(=O)c1sccc12` [Compound 1303, (S)-9-(4-(1-aminopropan-2-yl)-3-fluorophenyl)-8-hydroxy-6-methylthieno[2,3-c]quinolin-4(5H)-one], for which the IC50 was 92 nM in the experiment with A549 cells (Homo sapiens, A549, 72 h); 130 nM in the experiment with T47D cells (Homo sapiens, T47D, 72 h); 81 nM with BT-549 cells; 510 nM with HT-1197 cells (Homo sapiens, HT1197, 72 h); 14 nM against PBK (setting [1]).

For the compound `COc1cc(C)c2[nH]c(=O)c3sccc3c2c1-c1ccc([C@@H](C)CN)cc1` [Compound 1305, (R)-9-(4-(1-aminopropan-2-yl)phenyl)-8-methoxy-6-methylthieno [2,3-c]quinolin-4(5H)-one hydrochloride], the IC50 in the experiment on A549 cells (Homo sapiens, A549, 72 h) is 20 nM; in the experiment on T47D cells (Homo sapiens, T47D, 72 h), 40 nM; in the experiment on BT-549 cells it was 21 nM; in the experiment with HT-1197 cells (Homo sapiens, HT1197, 72 h), 64 nM; against PBK (setting [1]) it was 15 nM.

Regarding `CNC[C@H](C)c1ccc(-c2c(O)cc(C)c3[nH]c(=O)c4sccc4c23)cc1` [Compound 1307, (R)-8-hydroxy-6-methyl-9-(4-(1-(methylamino)propan-2-yl)phenyl)thieno [2,3-c]quinolin-4(5H)-one hydrobromide], the IC50 with A549 cells (hydrobromide) stood at 57 nM; in the experiment on T47D cells (hydrobromide) it was 85 nM; with BT-549 cells, 42 nM; in the experiment with HT-1197 cells (HT1197 cells (PBK-negative control), hydrobromide) it was 150 nM; against PBK (PBK 0.8 ng/micro-L, 50 micro-M ATP, 100 nM FITC-labeled histone H3 peptide, room temperature 1 hour, hydrobromide), 18 nM.

In the case of `COc1cc(C)c2[nH]c(=O)c3sccc3c2c1-c1ccc([C@H](C)CN)c(F)c1` [Compound 1310, (S)-9-(4-(1-aminopropan-2-yl)-3-fluorophenyl)-8-methoxy-6-methylthieno[2,3-c]quinolin-4(5H)-one hydrochloride], the IC50 in the experiment with A549 cells (Homo sapiens, A549, 72 h) was 370 nM; with T47D cells (Homo sapiens, T47D, 72 h) it was 800 nM; in the experiment with BT-549 cells, 400 nM; in the experiment with HT-1197 cells (Homo sapiens, HT1197, 72 h), 890 nM; against PBK, 54 nM.

In the case of `Cc1cc(O)c(-c2ccc([C@@H](C)CN(C)C)c(F)c2)c2c1[nH]c(=O)c1sccc12` [Compound 1311, (R)-9-(4-(1-(dimethylamino)propan-2-yl)-3-fluorophenyl)-8-hydroxy-6-methylthieno[2,3-c]quinolin-4(5H)-one hydrochloride], the IC50 in the experiment with A549 cells (Homo sapiens, A549, 72 h) is 45 nM; in the experiment with T47D cells (Homo sapiens, T47D, 72 h), 70 nM; in the experiment with BT-549 cells, 37 nM; in the experiment on HT-1197 cells (Homo sapiens, HT1197, 72 h), 110 nM; at PBK, 17 nM.

In the case of `CNC[C@H](C)c1ccc(-c2c(O)cc(C)c3[nH]c(=O)c4sccc4c23)cc1F` [Compound 1315, (R)-9-(3-fluoro-4-(1-(methylamino)propan-2-yl)phenyl)-8-hydroxy-6-methylthieno[2,3-c]quinolin-4(5H)-one hydrochloride], the IC50 turned out to be 34 nM with A549 cells (Homo sapiens, A549, 72 h); 41 nM in the experiment on T47D cells (Homo sapiens, T47D, 72 h); 24 nM with BT-549 cells; 100 nM in the experiment on HT-1197 cells (Homo sapiens, HT1197, 72 h); 8.1 nM against PBK.

`CNC[C@H](C)c1ccc(-c2c(OC)cc(C)c3[nH]c(=O)c4sccc4c23)cc1F` [Compound 1316, (R)-9-(3-fluoro-4-(1-(methylamino)propan-2-yl)phenyl)-8-methoxy-6-methylthieno[2,3-c]quinolin-4(5H)-one hydrochloride]: the IC50 with A549 cells (Homo sapiens, A549, 72 h) was found to be 86 nM; in the experiment with T47D cells (Homo sapiens, T47D, 72 h), 160 nM; in the experiment with BT-549 cells, 83 nM; with HT-1197 cells (Homo sapiens, HT1197, 72 h), 230 nM; against PBK, 33 nM.

In the case of `COc1cc(C)c2[nH]c(=O)c3sccc3c2c1-c1ccc([C@@H](C)CN)c(F)c1` [Compound 1317, (R)-9-(4-(1-aminopropan-2-yl)-3-fluorophenyl)-8-methoxy-6-methylthieno[2,3-c]quinolin-4(5H)-one hydrochloride], the 50% inhibitory concentration (IC50) with A549 cells (Homo sapiens, A549, 72 h) is 42 nM; with T47D cells (Homo sapiens, T47D, 72 h) it was 72 nM; with BT-549 cells, 36 nM; in the experiment with HT-1197 cells (Homo sapiens, HT1197, 72 h) it was 100 nM; on PBK, 22 nM.

Take `Cc1cc(O)c(-c2ccc([C@@H](C)CN)c(F)c2)c2c1[nH]c(=O)c1sccc12` [Compound 1318, (R)-9-(4-(1-aminopropan-2-yl)-3-fluorophenyl)-8-hydroxy-6-methylthieno[2,3-c]quinolin-4(5H)-one hydrochloride]: the IC50 stood at 15 nM in the experiment on A549 cells (Homo sapiens, A549, 72 h); 15 nM in the experiment with T47D cells (Homo sapiens, T47D, 72 h); 8.4 nM in the experiment on BT-549 cells; 63 nM in the experiment on HT-1197 cells (Homo sapiens, HT1197, 72 h); 3.6 nM on PBK (PBK 0.8 ng/micro-L, 50 micro-M ATP, 100 nM FITC-labeled histone H3 peptide, room temperature 1 hour, hydrochloride).

As a reminder, the IC50 is the concentration that gives 50% inhibition.
